Four compounds from ChEMBL document CHEMBL5046252, “Integrin-Mediated Targeted Cancer Therapy Using c(RGDyK)-Based Conjugates of Gemcitabine” (J Med Chem, 2022) can be followed below.

Broadly, the pIC50 is the IC50 on a negative log10 scale, so that one unit is a factor of ten.

Data set [1] has as its system WM 266-4. Put plainly: Inhibition of cell invasiveness in human WM266-4 cells at 10 uM measured after 4 hrs by DiffQuick staining based light microscopic analysis. In kind it is functional.
Data set [2] has as its system WM 266-4. Put plainly: Induction of apoptosis in human WM266-4 cells assessed as viable cells at 1 uM measured after 72 hrs by Annexin V-FITC and PI staining based flow cytometry analysis (reference value: 98.2%). It counts as functional. The note with it: read-out: Activity. Background: A flow cytometer gives signals particle by particle.
Data set [3] can be described thus: Chemostability of the compound in phosphate buffer assessed as compound hydrolysis at pH 7.4 measured after 7 hrs by LC-MS analysis. It counts as physicochemical. The conditions noted are these: pH 7.4, 7 h.
For data set [4], the system named is WM 266-4. In words: Induction of apoptosis in human WM266-4 cells assessed as early apoptotic cells at 1 uM measured after 72 hrs by Annexin V-FITC and PI staining based flow cytometry analysis (reference value: 0.2%). In kind it is functional.
Data set [5] relates to WM 266-4. In words: Induction of apoptosis in human WM266-4 cells assessed as necrotic cells at 1 uM measured after 72 hrs by Annexin V-FITC and PI staining based flow cytometry analysis (reference value: […]). It counts as functional.
Data set [6] relates to A549. In words: Antiproliferative activity against human A549 cells assessed as inhibition of cell growth measured after 72 hrs by MTT assay. In kind it is functional, cell-based. The note with it: A549, 72 h. (Tetrazolium dyes change colour on reduction, which living cells bring about.)
A short description of data set [7]: Drug metabolism in human plasma assessed as gemcitabine release at 1 ug/ml by LC-MS/MS analysis. It counts as ADME, cell-free. The conditions noted are these: dose 1 µg/ml.
A short description of data set [8]: Chemostability of the compound in phosphate buffer assessed as residual parent compound concentration at pH 7.4 measured after 24 hrs by LC-MS analysis. In kind it is physicochemical. The note with it: read-out: Activity.
Data set [9] can be described thus: Chemostability of the compound in acetate buffer at pH 5.2 measured upto 48 hrs by LC-MS analysis. In kind it is physicochemical. The conditions noted are these: pH 5.2, 48 h.
Data set [10] is described as follows: Drug metabolism in human plasma assessed as release of 2',2'-difluorodeoxyuridine metabolite at 1 ug/ml by LC-MS/MS analysis. It counts as ADME, cell-free. The conditions noted are these: dose 1 µg/ml.
For data set [11], the system named is WM 266-4. Put plainly: Inhibition of cell growth in human WM266-4 cells measured after 24 hrs. It counts as functional, cell-based. The conditions noted are these: WM 266-4, 24 h.
In data set [12] the test system is WM 266-4. In words: Inhibition of clonogenicity in human WM266-4 cells assessed as proportion of cell colonies at 1 uM measured after 72 hrs relative to control. Also on record: scale not given: the % may be the effect or the level left. In kind it is functional.
Data set [13] deals with WM 266-4. Put plainly: Induction of apoptosis in human WM266-4 cells assessed as late apoptotic cells at 1 uM measured after 72 hrs by Annexin V-FITC and PI staining based flow cytometry analysis (reference value: 0.5%). In kind it is functional.
A short description of data set [14]: Stability of the compound in human plasma at 1 ug/ml measured for 4 hrs by LC-MS/MS analysis. In kind it is ADME, cell-free. The conditions noted are these: at 1 µg/mL.
The nature of data set [15]: Drug metabolism in human A549 cells assessed as 2',2'-difluorodeoxyuridine metabolite concentration at 10 uM measured per 2X10^5 cells after 24 hrs by LC-MS/MS analysis. It counts as ADME, cell-based. The note with it: a549, 24 h.
The nature of data set [16]: Stability of the compound in human A549 cells assessed as parent compound concentration at 10 uM measured per 2 x 10^6 cells after 4 hrs by LC-MS/MS analysis. In kind it is ADME, cell-based. The note with it: a549, 4 h.
The nature of data set [17]: Drug uptake in human A549 cells at 20 uM in presence of alphavbeta3 integrin […], c(RGDyK) incubated for 2 hrs by LC-MS analysis. It counts as cell-based. The note with it: a549, 2 h.
Data set [18] can be described thus: Drug uptake in C57BL/6 naive mouse blood at 10 mg/kg, ip measured after 2 hrs by LC-MS/MS analysis. In kind it is ADME, organism-based. The conditions noted are these: C57BL/6, mouse, whole blood, read-out: Drug uptake.
A short description of data set [19]: Drug metabolism in C57BL/6 naive mouse blood assessed as release of gemcitabine metabolite at 10 mg/kg, ip measured after 2 hrs by LC-MS/MS analysis. In kind it is ADME, organism-based. The note with it: in vivo.
Data set [20] can be described thus: Chemostability of the compound in phosphate buffer buffer at pH 7.4 measured upto 48 hrs by LC-MS analysis. In kind it is physicochemical. The note with it: pH 7.4, 48 h.
Data set [21] is described as follows: Drug uptake in C57BL/6 naive mouse blood at 10 mg/kg, ip measured after 0.5 hrs by LC-MS/MS analysis. It counts as ADME, organism-based. The note with it: C57BL/6, mouse, whole blood, read-out: Drug uptake.
Data set [22] in a line: Drug uptake in C57BL/6 naive mouse blood at 10 mg/kg, ip measured after 8 hrs by LC-MS/MS analysis. In kind it is ADME, organism-based. The conditions noted are these: C57BL/6, mouse, whole blood, read-out: Drug uptake.
Data set [23] is described as follows: Drug metabolism in C57BL/6 naive mouse blood assessed as release of gemcitabine metabolite at 10 mg/kg, ip measured after 0.5 hrs by LC-MS/MS analysis. The note with it: in vivo. In kind it is ADME, organism-based.
A short description of data set [24]: Stability of the compound in DMEM-F12 medium measured for 70 hrs by LC-MS/MS analysis. In kind it is physicochemical.
The nature of data set [25]: Drug uptake in C57BL/6 naive mouse blood at 10 mg/kg, ip measured after 24 hrs by LC-MS/MS analysis. In kind it is ADME, organism-based. The note with it: C57BL/6, mouse, whole blood, read-out: Drug uptake.
The nature of data set [26]: Drug uptake in C57BL/6 naive mouse blood at 10 mg/kg, ip measured after 6 hrs by LC-MS/MS analysis. In kind it is ADME, organism-based. The note with it: C57BL/6, mouse, whole blood, read-out: Drug uptake.
The nature of data set [27]: Drug metabolism in C57BL/6 naive mouse blood assessed as release of gemcitabine metabolite at 10 mg/kg, ip measured after 8 hrs by LC-MS/MS analysis. In kind it is ADME, organism-based. The note with it: in vivo.
Data set [28] in a line: Drug metabolism in C57BL/6 naive mouse blood assessed as release of gemcitabine metabolite at 10 mg/kg, ip measured after 6 hrs by LC-MS/MS analysis. It counts as ADME, organism-based. The conditions noted are these: in vivo.
Data set [29] can be described thus: Drug metabolism in C57BL/6 naive mouse blood assessed as release of gemcitabine metabolite at 10 mg/kg, ip measured after 1 hr by LC-MS/MS analysis. The note with it: in vivo. It counts as ADME, organism-based.
The nature of data set [30]: Drug uptake in C57BL/6 naive mouse blood at 10 mg/kg, ip measured after 1 hr by LC-MS/MS analysis. It counts as ADME, organism-based. The conditions noted are these: C57BL/6, mouse, whole blood, read-out: Drug uptake.
Data set [31] in a line: Drug metabolism in C57BL/6 naive mouse blood assessed as release of gemcitabine metabolite at 10 mg/kg, ip measured after 0.25 hrs by LC-MS/MS analysis. It counts as ADME, organism-based. The conditions noted are these: in vivo.
Data set [32] in a line: Stability of the compound in C57BL/6 naive mouse blood at 10 mg/kg, ip measured for 1 hr by LC-MS/MS analysis. It counts as ADME, organism-based. The note with it: in vivo.
Data set [33] can be described thus: Drug metabolism in C57BL/6 naive mouse blood assessed as release of gemcitabine metabolite at 10 mg/kg, ip measured after 24 hrs by LC-MS/MS analysis. In kind it is ADME, organism-based. The note with it: in vivo.
Data set [34] can be described thus: Drug metabolism in human A549 cells assessed as gemcitabine metabolite formation at 10 uM measured per 2 x 10^5 cells after 24 hrs by LC-MS/MS analysis. In kind it is ADME, cell-based. The note with it: a549, 24 h.
The nature of data set [35]: Drug uptake in C57BL/6 naive mouse blood at 10 mg/kg, ip measured after 0.25 hrs by LC-MS/MS analysis. In kind it is ADME, organism-based. The note with it: C57BL/6, mouse, whole blood, read-out: Drug uptake.
A short description of data set [36]: Drug metabolism in C57BL/6 naive mouse blood assessed as release of gemcitabine metabolite at 10 mg/kg, ip measured after 4 hrs by LC-MS/MS analysis. The conditions noted are these: in vivo. In kind it is ADME, organism-based.
Data set [37] is described as follows: Drug uptake in C57BL/6 naive mouse blood at 10 mg/kg, ip measured after 4 hrs by LC-MS/MS analysis. In kind it is ADME, organism-based. The note with it: C57BL/6, mouse, whole blood, read-out: Drug uptake.
Data set [38] can be described thus: Drug uptake in human A549 cells at 20 uM in presence of alphavbeta3 integrin […]-cilengitide incubated for 2 hrs by LC-MS analysis. It counts as cell-based. The conditions noted are these: a549, 2 h.

pIC50: −log10 of the molar value. Activity calls are given as the source filed them. The calls are words filed in the database; no cut-off is given here.

Take `N=C(N)NCCC[C@@H]1NC(=O)[C@H](CCCCN)NC(=O)[C@@H](Cc2ccc(O)cc2)NC(=O)[C@H](CC(=O)O)NC(=O)CNC1=O`: in data set [1], the inhibition result was “Active”.
As to `N=C(N)NCCC[C@@H]1NC(=O)[C@H](CCCCNC(=O)OCCSSCCOC(=O)OC[C@H]2O[C@@H](n3ccc(N)nc3=O)C(F)(F)[C@@H]2O)NC(=O)[C@@H](Cc2ccc(O)cc2)NC(=O)[C@H](CC(=O)O)NC(=O)CNC1=O`, in [2], the viability at 1 µM was 66.4%. The Stability entry in data set [3] is reported as “Unstable”; in data set [9], “Stable”. The Activity in [4] turned out to be 0.3%; in [5], 31.1%; in data set [12], 4.9%; in [13], 2.2%. The pIC50 in data set [6] was 7.51; in [11], less than 4.00. Further, the Drug metabolism entry in [7] and in data set [10] was “Metabolite_Detected” throughout. Further, the remaining at 24 h in data set [8] stood at 85%. The inhibition entry in [1] is “Active”.
For the compound `Nc1ccn([C@@H]2O[C@H](CO)[C@@H](O)C2(F)F)c(=O)n1` [GEMCITABINE], the viability at 1 µM in [2] worked out at 78.3%. Moreover, the Activity was 4.1% in [4], 12.4% in data set [5], 46.6% in [12] and 5.1% in data set [13]. Moreover, the values for the pIC50 in data set [6] and in data set [11] were 7.73 and 4.75, respectively.
Take `N=C(N)NCCC[C@@H]1NC(=O)[C@H](CCCCNC(=O)OC[C@H]2O[C@@H](n3ccc(N)nc3=O)C(F)(F)[C@@H]2O)NC(=O)[C@@H](Cc2ccc(O)cc2)NC(=O)[C@H](CC(=O)O)NC(=O)CNC1=O`: the Stability result in data set [14], in [20], in [9], in data set [24] and in [32] was “Stable” throughout. Moreover, the Drug metabolism in [15] is recorded as 4 ng; in data set [19], 6 nM; in data set [23] it was 33 nM; in [27] it was 40 nM; in data set [28], 11 nM; in data set [29], 46 nM. Also, the Drug metabolism in [31] is 748 nM; in data set [33], 3 nM; in [34], less than 0.05 ng; in data set [36], 7 nM. Further, the Drug uptake is reported as 5 ng in [16], “Not Active” in data set [17] and “Not Active” in data set [38]. Further, the viability at 1 µM in [2] came out at 72.3%. Besides, the Activity in data set [4] was 1.3%; in data set [5] it was 21.7%; in data set [12] it was 8.3%; in data set [13], 4.8%. Further, the concentration at 2 h in data set [18] is 547 nM. Also, the pIC50 in data set [6] was 6.17; in [11], 4.24. In addition, in [21], the concentration at 0.5 h was 8470 nM. For the same compound, in data set [22], the concentration at 8 h is 11 nM. In data set [25], the concentration at 24 h stood at 14 nM. For the same compound, the concentration at 6 h in data set [26] was 168 nM. Moreover, the inhibition entry in data set [1] is “Active”. In addition, the concentration at 1 h in data set [30] is 3320 nM. The concentration at 0.25 h in [35] was found to be 6660 nM. Also, the concentration at 4 h in data set [37] is 38 nM.
